{"source": "paper PMC5333395", "about": "“Assessing histone demethylase inhibitors in cells: lessons learned” (Epigenetics & Chromatin, 2017)", "key": {"[1]": {"target": "KDM5C (Homo sapiens, UniProt P41229)", "sequence (P41229 whole entry)": "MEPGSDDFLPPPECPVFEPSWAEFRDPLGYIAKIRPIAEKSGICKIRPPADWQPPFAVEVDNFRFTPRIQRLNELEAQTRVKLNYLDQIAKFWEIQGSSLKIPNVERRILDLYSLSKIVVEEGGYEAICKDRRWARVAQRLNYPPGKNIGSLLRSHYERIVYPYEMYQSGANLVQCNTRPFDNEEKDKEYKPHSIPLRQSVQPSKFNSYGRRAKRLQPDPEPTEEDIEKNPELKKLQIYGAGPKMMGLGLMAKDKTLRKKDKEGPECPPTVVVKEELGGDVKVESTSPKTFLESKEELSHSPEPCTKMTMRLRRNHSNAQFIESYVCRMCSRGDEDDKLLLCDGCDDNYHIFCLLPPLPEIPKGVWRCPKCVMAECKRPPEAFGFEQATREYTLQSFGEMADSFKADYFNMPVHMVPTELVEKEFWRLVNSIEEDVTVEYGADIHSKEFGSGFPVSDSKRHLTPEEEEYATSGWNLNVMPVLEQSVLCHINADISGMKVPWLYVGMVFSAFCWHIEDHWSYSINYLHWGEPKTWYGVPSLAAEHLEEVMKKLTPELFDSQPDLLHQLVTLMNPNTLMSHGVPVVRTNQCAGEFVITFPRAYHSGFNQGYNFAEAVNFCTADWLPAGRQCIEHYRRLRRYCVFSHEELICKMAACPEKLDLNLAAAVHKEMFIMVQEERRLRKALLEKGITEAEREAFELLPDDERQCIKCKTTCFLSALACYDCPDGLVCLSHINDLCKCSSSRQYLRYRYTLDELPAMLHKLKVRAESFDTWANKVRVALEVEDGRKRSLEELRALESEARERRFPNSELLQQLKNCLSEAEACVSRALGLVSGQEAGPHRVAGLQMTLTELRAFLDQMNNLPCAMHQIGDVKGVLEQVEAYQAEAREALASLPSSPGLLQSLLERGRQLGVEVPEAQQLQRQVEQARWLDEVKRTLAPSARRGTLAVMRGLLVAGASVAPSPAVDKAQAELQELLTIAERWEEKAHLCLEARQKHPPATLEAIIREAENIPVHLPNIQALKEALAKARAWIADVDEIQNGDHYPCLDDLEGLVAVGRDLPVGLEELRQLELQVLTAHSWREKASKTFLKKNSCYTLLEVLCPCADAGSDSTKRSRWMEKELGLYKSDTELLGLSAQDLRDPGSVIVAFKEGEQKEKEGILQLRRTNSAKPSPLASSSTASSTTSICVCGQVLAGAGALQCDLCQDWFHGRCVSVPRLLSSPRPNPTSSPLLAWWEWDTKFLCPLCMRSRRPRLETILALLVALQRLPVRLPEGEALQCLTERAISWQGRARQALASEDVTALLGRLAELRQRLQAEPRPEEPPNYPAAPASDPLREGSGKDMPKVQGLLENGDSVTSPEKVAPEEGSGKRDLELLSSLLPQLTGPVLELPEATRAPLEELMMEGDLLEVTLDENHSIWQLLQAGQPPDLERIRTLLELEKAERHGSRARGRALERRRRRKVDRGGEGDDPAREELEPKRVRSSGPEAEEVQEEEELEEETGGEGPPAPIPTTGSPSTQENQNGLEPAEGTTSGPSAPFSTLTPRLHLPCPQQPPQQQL", "design": "method as in PMID 26741168", "conditions": "AlphaScreen; in vitro biochemical profiling previously reported; cited from earlier work"}, "[2]": {"target": "T1, KDM2A (Homo sapiens, UniProt Q9Y2K7)", "T1 sequence (Q9Y2K7 1-1162)": "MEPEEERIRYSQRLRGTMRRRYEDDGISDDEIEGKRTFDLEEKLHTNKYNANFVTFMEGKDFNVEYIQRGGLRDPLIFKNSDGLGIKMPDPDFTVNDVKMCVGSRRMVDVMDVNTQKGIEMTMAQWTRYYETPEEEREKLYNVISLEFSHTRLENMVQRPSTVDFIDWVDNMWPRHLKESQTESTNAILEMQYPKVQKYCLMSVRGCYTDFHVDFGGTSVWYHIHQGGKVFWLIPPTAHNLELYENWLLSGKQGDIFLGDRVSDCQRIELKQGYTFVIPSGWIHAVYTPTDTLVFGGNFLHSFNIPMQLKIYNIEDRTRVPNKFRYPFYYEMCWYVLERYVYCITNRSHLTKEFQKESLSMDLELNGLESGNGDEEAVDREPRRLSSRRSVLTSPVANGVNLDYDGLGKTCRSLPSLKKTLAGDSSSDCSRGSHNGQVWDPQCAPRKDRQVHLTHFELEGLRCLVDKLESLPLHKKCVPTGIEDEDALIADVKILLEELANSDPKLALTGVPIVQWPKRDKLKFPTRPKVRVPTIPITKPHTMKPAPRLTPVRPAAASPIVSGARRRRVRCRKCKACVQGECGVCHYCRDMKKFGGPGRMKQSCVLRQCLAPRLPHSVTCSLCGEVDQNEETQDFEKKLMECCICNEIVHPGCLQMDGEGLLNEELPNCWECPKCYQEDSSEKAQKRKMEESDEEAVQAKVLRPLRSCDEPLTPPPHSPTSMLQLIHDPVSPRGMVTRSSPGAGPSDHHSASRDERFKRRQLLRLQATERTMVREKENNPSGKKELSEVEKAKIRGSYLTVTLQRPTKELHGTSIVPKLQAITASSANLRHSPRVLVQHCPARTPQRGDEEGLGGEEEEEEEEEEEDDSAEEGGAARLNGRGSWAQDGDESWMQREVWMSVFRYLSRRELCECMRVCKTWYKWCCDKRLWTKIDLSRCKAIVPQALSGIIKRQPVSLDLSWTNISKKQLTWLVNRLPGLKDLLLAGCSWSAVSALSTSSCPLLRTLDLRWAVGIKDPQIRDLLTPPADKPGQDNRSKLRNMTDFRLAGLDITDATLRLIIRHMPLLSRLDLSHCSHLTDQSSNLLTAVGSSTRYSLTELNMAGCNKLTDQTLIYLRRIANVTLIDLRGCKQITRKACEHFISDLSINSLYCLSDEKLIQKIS", "design": "method as in PMID 26741168", "conditions": "RapidFire under low iron condition (0.2 mM); previously reported; read-out: KDM2A IC50, in vitro, RapidFire; cited from earlier work"}, "[3]": {"target": "T1, KDM2A", "test": "High-content immunofluorescence (IF) assay, overexpressed full-length FLAG-tagged KDM in HeLa cells", "assay_type": "cell-based", "conditions": "HeLa cells overexpressing WT KDM2A, 24 h; read-out: KDM2A, in cells, EC50 by IF assay (head: IC50)", "method": "(§1) HeLa cells (ATCC) were cultured at 37 °C and 5% CO2 in Minimal Essential Media—Eagle (Sigma-Aldrich, UK) supplemented with 10% heat-inactivated foetal calf serum (FCS) (Gibco, UK), and 1% L-glutaMAX (Gibco, UK) in T75 flasks (Sarstedt, UK) and passaged regularly with TrypLE (Life Technologies, UK) before cells reached confluence. On day 0, 7000 cells per well were plated on a 96-well clear bottom CellCarrier plate (PerkinElmer, UK). The next day the cells were transfected with Lipofectamine 3000 (ThermoFisher Scientific, UK) following the manufacturer’s instructions. Briefly, 0.1 µg of plasmid DNA (encoding for the respective demethylase) and 0.15 µL of Lipofectamine 3000 were diluted in separate tubes containing 5 µL OptiMEM. 0.15 µL of P3000 was added to the tube with the DNA. The two solutions were then mixed gently and allowed to incubate for 5 min at room temperature. Next, the DNA-lipid complex was added to the cells for 4 h at 37 °C and 5% CO2.\n(§2) Compound dilutions were made in a 96-well PCR plate (Starlab, UK). The culture medium was supplemented with 0.4% DMSO so that the solvent concentration was maintained throughout. Compounds were serially diluted at a 1:2 or 1:3 dilution ratio. Next, the cell culture plate was removed from the incubator and the medium was gently aspirated and replaced with the fresh medium containing diluted compounds.\n(§3) Then cells were rinsed once with PBS and blocked for 30 min at room temperature using 3% v/v foetal calf serum diluted in PBS."}, "[4]": {"target": "KDM6B (Homo sapiens, UniProt O15054)", "sequence (O15054 whole entry)": "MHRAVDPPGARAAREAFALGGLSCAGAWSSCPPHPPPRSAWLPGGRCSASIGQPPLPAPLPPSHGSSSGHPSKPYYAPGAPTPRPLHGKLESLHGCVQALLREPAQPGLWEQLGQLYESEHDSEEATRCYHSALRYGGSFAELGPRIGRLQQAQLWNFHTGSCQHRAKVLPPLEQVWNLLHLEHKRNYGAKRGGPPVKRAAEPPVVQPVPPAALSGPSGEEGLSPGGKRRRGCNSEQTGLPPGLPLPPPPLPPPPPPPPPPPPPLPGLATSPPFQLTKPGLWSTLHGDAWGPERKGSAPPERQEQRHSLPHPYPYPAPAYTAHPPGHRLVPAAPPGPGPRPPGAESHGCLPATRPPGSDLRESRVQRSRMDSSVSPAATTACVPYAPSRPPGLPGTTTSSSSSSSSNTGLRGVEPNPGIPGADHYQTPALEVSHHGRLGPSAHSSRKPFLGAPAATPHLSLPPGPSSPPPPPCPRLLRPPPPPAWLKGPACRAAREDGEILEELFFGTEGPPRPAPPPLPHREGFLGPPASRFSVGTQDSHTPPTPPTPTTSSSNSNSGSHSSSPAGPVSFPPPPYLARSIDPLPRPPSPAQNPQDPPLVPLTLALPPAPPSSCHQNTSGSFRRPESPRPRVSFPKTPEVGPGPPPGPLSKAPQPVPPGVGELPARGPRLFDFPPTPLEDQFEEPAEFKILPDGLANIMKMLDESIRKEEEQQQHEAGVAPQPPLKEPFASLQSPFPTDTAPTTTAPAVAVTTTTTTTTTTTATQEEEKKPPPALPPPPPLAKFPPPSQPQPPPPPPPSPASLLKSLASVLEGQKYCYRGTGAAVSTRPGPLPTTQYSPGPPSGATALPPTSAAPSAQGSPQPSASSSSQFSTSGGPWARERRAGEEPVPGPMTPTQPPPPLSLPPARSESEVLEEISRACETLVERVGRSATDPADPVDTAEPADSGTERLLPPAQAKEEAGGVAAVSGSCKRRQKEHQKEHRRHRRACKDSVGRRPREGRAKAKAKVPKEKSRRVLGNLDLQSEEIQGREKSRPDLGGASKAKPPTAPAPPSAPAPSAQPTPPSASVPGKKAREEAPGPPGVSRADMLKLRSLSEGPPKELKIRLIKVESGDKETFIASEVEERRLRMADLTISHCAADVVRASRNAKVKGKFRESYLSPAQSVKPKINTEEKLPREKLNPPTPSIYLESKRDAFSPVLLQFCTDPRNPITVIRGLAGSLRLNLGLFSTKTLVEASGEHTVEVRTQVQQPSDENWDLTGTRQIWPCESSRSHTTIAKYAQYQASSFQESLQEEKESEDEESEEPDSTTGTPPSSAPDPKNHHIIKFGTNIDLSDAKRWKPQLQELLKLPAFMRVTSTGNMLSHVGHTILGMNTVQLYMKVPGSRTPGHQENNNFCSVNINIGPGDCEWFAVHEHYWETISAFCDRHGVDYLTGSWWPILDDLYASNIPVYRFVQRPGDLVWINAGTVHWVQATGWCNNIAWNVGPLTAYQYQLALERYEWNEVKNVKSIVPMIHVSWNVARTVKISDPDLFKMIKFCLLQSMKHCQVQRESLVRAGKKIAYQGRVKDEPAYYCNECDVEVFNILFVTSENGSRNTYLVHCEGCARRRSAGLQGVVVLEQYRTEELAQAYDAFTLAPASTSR", "test": "High-content immunofluorescence (IF) assay, overexpressed full-length FLAG-tagged KDM in HeLa cells", "assay_type": "cell-based", "conditions": "HeLa cells overexpressing WT KDM6B, H3K27me3 mark, 24 h; read-out: KDM6B, in cells, EC50 by IF assay (head: IC50)", "method": "as §1, §2, §3"}}}
{"smiles": "Clc1ccc(N/N=C(\\c2ccccc2)c2ccccn2)nc1", "note": "[JIB-04 E]", "values": [{"measurement": "IC50", "setting": "[1]", "result": "622 ± 50", "unit": "nM"}, {"measurement": "IC50", "setting": "[2]", "result": "1200 ± 10", "unit": "nM"}]}
{"smiles": "CCN(CCN(C)C)C(=O)CNCc1cncc(C(N)=O)c1", "note": "[KDOAM-32]", "values": [{"measurement": "EC50", "setting": "[3]", "result": "> 100", "unit": "µM"}, {"measurement": "EC50", "setting": "[4]", "result": "> 100", "unit": "µM"}]}
